Test results: US20240132484A1, “BROAD SPECTRUM ANTIVIRAL COMPOUNDS TARGETING THE SKI COMPLEX” (priority 2020, published 2024)
Several values for one entry are separate records, joined by “and”; a condition that tells them apart may be missing. Equal entries are not always repeated. Where two headings read alike, the source gives them in different places.

Columns and labels:
SARS2 = format: cell-based, SARS-CoV-2; conditions: for Infection Data, Average, Mean percentage infection relative to DMSO control: Average of Exp 1 (SMW491) and Exp 2 (SMW492); for Infection Data, Percentage Infection Relative to Appropriate DMSO Control: single well, avg background subtraction; for Percentage Inhibition Average 1 μM / Screening data (Relative infection to DMSO controls) Average 1 μM: SARS2, 1 μM; for Screening data (Relative infection to DMSO controls) Average 1 μM / Screening data (Relative infection to DMSO controls) Average 5 μM / Screening data (Relative infection to DMSO controls) Average 10 μM / Screening data (Relative infection to DMSO controls) Average 25 μM / Screening data (Relative infection to DMSO controls) Average 50 μM / Average (relative infection to DMSO over the 5 tested concentrations): 100=DMSO control; for Percentage Inhibition Average 5 μM / Screening data (Relative infection to DMSO controls) Average 5 μM: SARS2, 5 μM; for Percentage Inhibition Average 10 μM / Screening data (Relative infection to DMSO controls) Average 10 μM: SARS2, 10 μM; for Percentage Inhibition Average 25 μM / Screening data (Relative infection to DMSO controls) Average 25 μM: SARS2, 25 μM; for Percentage Inhibition Average 50 μM / Screening data (Relative infection to DMSO controls) Average 50 μM: SARS2, 50 μM; for Average (relative infection to DMSO over the 5 tested concentrations): SARS2, average over 1 to 50 uM; for Infection Data, Percentage Infection Relative to Appropriate DMSO Control with Avg Background Subtraction: duplicate wells, listed as SICLS62; for Infection Data, Average, Mean (Percentage Infection Relative to Appropriate DMSO Control): average of Exp 1 and Exp 2, n=4
cells (nuclei count) = conditions: for Relative cell count to DMSO controls, Average 1 μM / Relative cell count to DMSO controls, Average 5 μM / Relative cell count to DMSO controls, Average 10 μM / Relative cell count to DMSO controls, Average 25 μM / Relative cell count to DMSO controls, Average 50 μM: toxicity data, 100=DMSO control; for Toxicity Data, Average, Mean percentage relative to DMSO control: Average of Exp 1 (SMW491) and Exp 2 (SMW492); for Toxicity Data, Percentage Relative to Appropriate DMSO Control: single well; for Relative cell count to DMSO controls, Average (for correlation analysis): average value over the 5 tested concentrations (1 to 50 uM); for Toxicity Data, Average, Mean (percentage relative to appropriate DMSO control): average of Exp 1 and Exp 2, n=4

## COc1ccc(C2NC(=O)NC(C)=C2C(=O)NCc2ccccc2)cc1OC (stereo not shown) [SILCS48]
SARS2; n=4, 1 uM
  Infection Data, Average, Mean percentage infection relative to DMSO control: 71.69%
SARS2; n=4, 5 uM
  Infection Data, Average, Mean percentage infection relative to DMSO control: 75.19%
SARS2; n=4, 10 uM
  Infection Data, Average, Mean percentage infection relative to DMSO control: 85.09%
SARS2; n=4, 25 uM
  Infection Data, Average, Mean percentage infection relative to DMSO control: 100.34%
SARS2; n=4, 50 uM
  Infection Data, Average, Mean percentage infection relative to DMSO control: 160.04%
SARS2; Exp 1 (SMW491), 1 uM
  Infection Data, Percentage Infection Relative to Appropriate DMSO Control: 87.03% and 82.70%
SARS2; Exp 1 (SMW491), 5 uM
  Infection Data, Percentage Infection Relative to Appropriate DMSO Control: 70.35% and 83.94%
SARS2; Exp 1 (SMW491), 10 uM
  Infection Data, Percentage Infection Relative to Appropriate DMSO Control: 96.64% and 110.53%
SARS2; Exp 1 (SMW491), 25 uM
  Infection Data, Percentage Infection Relative to Appropriate DMSO Control: 102.87% and 119.89%
SARS2; Exp 1 (SMW491), 50 uM
  Infection Data, Percentage Infection Relative to Appropriate DMSO Control: 159.63% and 145.37%
SARS2; Exp 2 (SMW492), 1 uM
  Infection Data, Percentage Infection Relative to Appropriate DMSO Control: 59.24% and 57.80%
SARS2; Exp 2 (SMW492), 5 uM
  Infection Data, Percentage Infection Relative to Appropriate DMSO Control: 84.51% and 61.96%
SARS2; Exp 2 (SMW492), 10 uM
  Infection Data, Percentage Infection Relative to Appropriate DMSO Control: 49.42% and 83.79%
SARS2; Exp 2 (SMW492), 25 uM
  Infection Data, Percentage Infection Relative to Appropriate DMSO Control: 97.57% and 81.03%
SARS2; Exp 2 (SMW492), 50 uM
  Infection Data, Percentage Infection Relative to Appropriate DMSO Control: 177.82% and 157.32%
SARS2
  Percentage Inhibition Average 1 μM: 28.31%
  Screening data (Relative infection to DMSO controls) Average 1 μM: 71.69
  Percentage Inhibition Average 5 μM: 24.81%
  Screening data (Relative infection to DMSO controls) Average 5 μM: 75.19
  Percentage Inhibition Average 10 μM: 14.91%
  Screening data (Relative infection to DMSO controls) Average 10 μM: 85.09
  Percentage Inhibition Average 25 μM: −0.34%
  Screening data (Relative infection to DMSO controls) Average 25 μM: 100.34
  Percentage Inhibition Average 50 μM: −60.04%
  Screening data (Relative infection to DMSO controls) Average 50 μM: 160.04
  Average (relative infection to DMSO over the 5 tested concentrations): 98.47
Cells (nuclei count)
  Relative cell count to DMSO controls, Average 1 μM: 119.19
  Relative cell count to DMSO controls, Average 5 μM: 115.84
  Relative cell count to DMSO controls, Average 10 μM: 107.43
  Relative cell count to DMSO controls, Average 25 μM: 102.04
  Relative cell count to DMSO controls, Average 50 μM: 77.81
  Relative cell count to DMSO controls, Average (for correlation analysis): 104.46
Cells (nuclei count); n=4, 1 uM
  Toxicity Data, Average, Mean percentage relative to DMSO control: 119.19%
Cells (nuclei count); n=4, 5 uM
  Toxicity Data, Average, Mean percentage relative to DMSO control: 115.84%
Cells (nuclei count); n=4, 10 uM
  Toxicity Data, Average, Mean percentage relative to DMSO control: 107.43%
Cells (nuclei count); n=4, 25 uM
  Toxicity Data, Average, Mean percentage relative to DMSO control: 102.04%
Cells (nuclei count); n=4, 50 uM
  Toxicity Data, Average, Mean percentage relative to DMSO control: 77.81%
Cells (nuclei count); Exp 1 (SMW491), 1 uM
  Toxicity Data, Percentage Relative to Appropriate DMSO Control: 112% and 102%
Cells (nuclei count); Exp 1 (SMW491), 5 uM
  Toxicity Data, Percentage Relative to Appropriate DMSO Control: 108% and 106%
Cells (nuclei count); Exp 1 (SMW491), 10 uM
  Toxicity Data, Percentage Relative to Appropriate DMSO Control: 86% and 88%
Cells (nuclei count); Exp 1 (SMW491), 25 uM
  Toxicity Data, Percentage Relative to Appropriate DMSO Control: 95% and 88%
Cells (nuclei count); Exp 1 (SMW491), 50 uM
  Toxicity Data, Percentage Relative to Appropriate DMSO Control: 79% and 77%
Cells (nuclei count); Exp 2 (SMW492), 1 uM
  Toxicity Data, Percentage Relative to Appropriate DMSO Control: 130% and 132%
Cells (nuclei count); Exp 2 (SMW492), 5 uM
  Toxicity Data, Percentage Relative to Appropriate DMSO Control: 115% and 135%
Cells (nuclei count); Exp 2 (SMW492), 10 uM
  Toxicity Data, Percentage Relative to Appropriate DMSO Control: 135% and 121%
Cells (nuclei count); Exp 2 (SMW492), 25 uM
  Toxicity Data, Percentage Relative to Appropriate DMSO Control: 109% and 116%
Cells (nuclei count); Exp 2 (SMW492), 50 uM
  Toxicity Data, Percentage Relative to Appropriate DMSO Control: 81% and 75%

## CC1=C(C(=O)NCC2CCC2)C(c2cccs2)NC(=O)N1 (stereo not shown) [SILCS62]
SARS2; 1 uM, Exp 1 (SMW506)
  Infection Data, Percentage Infection Relative to Appropriate DMSO Control with Avg Background Subtraction: 84.10% and 102.05%
SARS2; 1 uM, Exp 2 (SMW492), SILCS 61-66 and 67-72 plates
  Infection Data, Percentage Infection Relative to Appropriate DMSO Control with Avg Background Subtraction: 50.01% and 36.38%
SARS2; 1 uM
  Infection Data, Average, Mean (Percentage Infection Relative to Appropriate DMSO Control): 68.14%
SARS2; 5 uM, Exp 1 (SMW506)
  Infection Data, Percentage Infection Relative to Appropriate DMSO Control with Avg Background Subtraction: 45.05% and 53.24%
SARS2; 5 uM, Exp 2 (SMW492), SILCS 61-66 and 67-72 plates
  Infection Data, Percentage Infection Relative to Appropriate DMSO Control with Avg Background Subtraction: 9.05% and 14.15%
SARS2; 5 uM
  Infection Data, Average, Mean (Percentage Infection Relative to Appropriate DMSO Control): 30.37%
SARS2; 10 uM, Exp 1 (SMW506)
  Infection Data, Percentage Infection Relative to Appropriate DMSO Control with Avg Background Subtraction: 84.98% and 89.35%
SARS2; 10 uM, Exp 2 (SMW492), SILCS 61-66 and 67-72 plates
  Infection Data, Percentage Infection Relative to Appropriate DMSO Control with Avg Background Subtraction: 5.57% and 5.50%
SARS2; 10 uM
  Infection Data, Average, Mean (Percentage Infection Relative to Appropriate DMSO Control): 46.35%
SARS2; 25 uM, Exp 1 (SMW506)
  Infection Data, Percentage Infection Relative to Appropriate DMSO Control with Avg Background Subtraction: 83.54% and 119.74%
SARS2; 25 uM, Exp 2 (SMW492), SILCS 61-66 and 67-72 plates
  Infection Data, Percentage Infection Relative to Appropriate DMSO Control with Avg Background Subtraction: 1.62% and 0.75%
SARS2; 25 uM
  Infection Data, Average, Mean (Percentage Infection Relative to Appropriate DMSO Control): 51.41%
SARS2; 50 uM, Exp 2 (SMW492), SILCS 61-66 and 67-72 plates
  Infection Data, Percentage Infection Relative to Appropriate DMSO Control with Avg Background Subtraction: −0.82% and 2.34%
SARS2; 50 uM
  Infection Data, Average, Mean (Percentage Infection Relative to Appropriate DMSO Control): 23.88%
SARS2
  Percentage Inhibition Average 1 μM: 31.86%
  Screening data (Relative infection to DMSO controls) Average 1 μM: 68.14
  Percentage Inhibition Average 5 μM: 69.63%
  Screening data (Relative infection to DMSO controls) Average 5 μM: 30.37
  Percentage Inhibition Average 10 μM: 53.65%
  Screening data (Relative infection to DMSO controls) Average 10 μM: 46.35
  Percentage Inhibition Average 25 μM: 48.59%
  Screening data (Relative infection to DMSO controls) Average 25 μM: 51.41
  Percentage Inhibition Average 50 μM: 76.12%
  Screening data (Relative infection to DMSO controls) Average 50 μM: 23.88
  Average (relative infection to DMSO over the 5 tested concentrations): 44.03
Cells (nuclei count); 1 uM
  Toxicity Data, Average, Mean (percentage relative to appropriate DMSO control): 112.47%
Cells (nuclei count)
  Relative cell count to DMSO controls, Average 1 μM: 112.47
  Relative cell count to DMSO controls, Average 5 μM: 123.92
  Relative cell count to DMSO controls, Average 10 μM: 116.29
  Relative cell count to DMSO controls, Average 25 μM: 106.51
  Relative cell count to DMSO controls, Average 50 μM: 98.08
  Relative cell count to DMSO controls, Average (for correlation analysis): 111.45
Cells (nuclei count); 5 uM
  Toxicity Data, Average, Mean (percentage relative to appropriate DMSO control): 123.92%
Cells (nuclei count); 10 uM
  Toxicity Data, Average, Mean (percentage relative to appropriate DMSO control): 116.29%
Cells (nuclei count); 25 uM
  Toxicity Data, Average, Mean (percentage relative to appropriate DMSO control): 106.51%
Cells (nuclei count); 50 uM
  Toxicity Data, Average, Mean (percentage relative to appropriate DMSO control): 98.08%

## COc1ccc(C2NC(=O)NC(C)=C2C(=O)NCC2CCC2)cc1OC (stereo not shown) [SILCS64]
SARS2
  Percentage Inhibition Average 1 μM: 20.42%
  Screening data (Relative infection to DMSO controls) Average 1 μM: 79.58
  Percentage Inhibition Average 5 μM: 66.48%
  Screening data (Relative infection to DMSO controls) Average 5 μM: 33.52
  Percentage Inhibition Average 10 μM: −11.17%
  Screening data (Relative infection to DMSO controls) Average 10 μM: 111.17
  Percentage Inhibition Average 25 μM: −30.68%
  Screening data (Relative infection to DMSO controls) Average 25 μM: 130.68
  Percentage Inhibition Average 50 μM: −58.69%
  Screening data (Relative infection to DMSO controls) Average 50 μM: 158.69
  Average (relative infection to DMSO over the 5 tested concentrations): 102.73
Cells (nuclei count)
  Relative cell count to DMSO controls, Average 1 μM: 103.13
  Relative cell count to DMSO controls, Average 5 μM: 119.2
  Relative cell count to DMSO controls, Average 10 μM: 92.78
  Relative cell count to DMSO controls, Average 25 μM: 84.89
  Relative cell count to DMSO controls, Average 50 μM: 75.66
  Relative cell count to DMSO controls, Average (for correlation analysis): 95.13
